Here are results for 15 compounds from US9365502B2, “Neuroactive substituted cyclopenta[b]phenanthrenes as modulators for GABA type-A receptors” (priority 2013, dated 2016).

Data set [1] deals with rat α1β2γ2L type GABAA receptors expressed in Xenopus laevis oocytes (Rattus norvegicus (Rat), UniProt P62813+P63138, INS375LLRMFSFK). Description: Potentiation of GABA-mediated chloride currents, oocyte electrophysiology. The data set is classed as cell-based. The settings on record: ± SEM. The method, then:
The compounds of the present disclosure were evaluated for the ability to potentiate chloride currents mediated by 2 μM GABA at rat α1β2γ2L type GABAA receptors expressed in Xenopus laevis oocytes and the results are shown in Table 2.
The GABA concentration used for the control response was 2 μM. Each compound was evaluated on at least four different oocytes at the concentrations indicated, and the results reported are the ratio of currents measured in the presence/absence of added compound. Gating represents direct current gated by 10 μM compound in the absence of GABA, and this current is reported as the ratio of compound only current/2 μM GABA current. Error limits are calculated as standard error of the mean (N≧4). Methods used are known in the art (see Jiang, X., et al.).

For data set [2], the target named is picrotoxin binding site on GABAA receptors. Description: [35S]-TBPS displacement (inhibition of [35S]-TBPS binding). To be noted: mean ± SEM, duplicate experiments performed in triplicate. How it is done: The IC50 values for non-competitive displacers of [^35S]-TBPS from the picrotoxin binding site on GABAA receptors are reported in Table 1.
Results presented are from duplicate experiments performed in triplicate. Error limits are calculated as standard error of the mean. Methods used are known in the art (see Jiang, X., et al., Neurosteroid analogues. 9. Conformationally constrained pregnanes: structure-activity studies of 13,24-cyclo-18,21-dinorcholane analogues of the GABA modulatory and anesthetic steroids (3α,5α)- and […]. J. Med. Chem., 46: 5334-48 (2003)—the contents of which are hereby incorporated by reference in their entirety).

Data set [3] has as its system Tadpole. Description: Tadpole loss of righting (LRR) and loss of swimming (LSR) reflexes. In kind it is in vivo. To be noted: ± SEM. How it is done: Table 3 discloses the anesthetic effects of the compounds of the present disclosure. In particular, the anesthetic effect of the compounds of the present disclosure on Loss of Righting Reflex (LRR) and Loss of Swimming Reflex (LSR).
Methods used are known in the art (see Jiang, X., et al.). Error limits are calculated as standard error of the mean (N=10 or more animals at each of five or more different concentrations).

Read-outs that look alike come from different tables or passages of the source.

The term melting point denotes the temperature, or range, at which the solid turns liquid. Take `C[C@@]12C[C@@H]3CC[C@@H]4C[C@H](O)CC[C@@H]4[C@H]3C[C@H]1CC[C@]21CO1`: the melting point lay in the range of 163 to 165 °C.

`C[C@@]12CC[C@H](O)C[C@H]1CC[C@@H]1C[C@]3(C)C(C#N)=CC[C@H]3C[C@H]12` (stereo in doubt) displayed a melting point of 170 to 172 °C.

`C[C@@]12C[C@@H]3CC[C@H]4C[C@H](O)CC[C@@H]4[C@H]3C[C@H]1CC[C@]21CO1`: the melting point was in the range of 165 to 167 °C.

On to `CC(=O)[C@@H]1CC[C@@H]2C[C@H]3[C@@H](CC[C@H]4C[C@H](O)CC[C@@H]43)C[C@]21C`, for which the melting point fell in the range of 128 to 130 °C.

`C[C@]12C[C@H]3CC[C@@H]4C[C@@H](O)CC[C@H]4[C@@H]3C[C@@H]1CC[C@@H]2C#N` gave a melting point of 162 to 164 °C.

`C[C@@]12C[C@@H]3CC[C@H]4C[C@H](O)CC[C@@H]4[C@H]3C[C@H]1CC[C@H]2C#N` registered a melting point of 163 to 165 °C.

The compound `C[C@@]12CC[C@H](O)C[C@H]1CC[C@@H]1C[C@]3(C)C(=O)CC[C@H]3C[C@H]12` returned a melting point of 179 to 181 °C.

In the case of `C[C@]12C[C@H]3CC[C@@H]4C[C@@H](O)CC[C@@]4(C)[C@@H]3C[C@@H]1CC[C@@H]2C#N`, the melting point lay in the range of 145 to 147 °C.

In the case of `C[C@]12CC(=O)C[C@@H]1C[C@H]1[C@@H](CC[C@H]3C[C@H](O)CC[C@@H]31)C2`, the melting point is 165 to 166 °C.

In turn, `C[C@]12C[C@H]3CC[C@@H]4C[C@@H](O)CC[C@H]4[C@@H]3C[C@@H]1CC[C@@H]2[N+](=O)[O-]` yielded a melting point of 157 to 159 °C.

In turn, `C[C@]12C[C@H]3CC[C@H]4C[C@@H](O)CC[C@H]4[C@@H]3C[C@@H]1CCC2=O` registered a melting point of 175 to 177 °C.

With `C[C@@]12CC[C@H](O)C[C@H]1CC[C@@H]1C[C@@]3(C)[C@@H](CC[C@@]34CO4)C[C@H]12`, the melting point was 138 to 140 °C.

With `CC(=O)[C@H]1CC[C@H]2C[C@@H]3[C@H](CC[C@@H]4C[C@@H](O)CC[C@H]43)C[C@@]21C`, the melting point is 131 to 133 °C.

Turning to `C[C@@]12C[C@@H]3CC[C@@H]4C[C@H](O)CC[C@@H]4[C@H]3C[C@H]1CCC2=O` (stereo in doubt), the melting point lay in the range of 174 to 176 °C.

The IC50 is the concentration that gives 50% inhibition. Read a high IC50 as weaker potency in that assay. In general, EC50 refers to the midpoint of the concentration-response curve. In the case of `CC(=O)[C@@H]1CC[C@@H]2C[C@H]3[C@@H](CC[C@H]4C[C@H](O)CC[C@@H]43)C[C@]21C` [MQ-50], in data set [1] (0.1 μM compound, 2 μM GABA, N>=4), the “Oocyte electrophysiology 0.1 μM (ratio of currents in presence/absence of compound)” value stood at 1.02 ± 0.01. Moreover, the “Oocyte electrophysiology 1.0 μM (ratio of currents in presence/absence of compound)” value in data set [1] (1.0 μM compound, 2 μM GABA, N>=4) turned out to be 1.18 ± 0.02. For the same compound, the “Oocyte electrophysiology (gating) 10 μM (ratio of compound only current/2 μM GABA current)” value in data set [1] (10 μM compound in the absence of GABA) amounted to 0.0 ± 0.0. The “Oocyte electrophysiology 10 μM (ratio of currents in presence/absence of compound)” value in data set [1] (10 μM compound, 2 μM GABA, N>=4) was found to be 1.98 ± 0.07. Also, the 50% inhibitory concentration (IC50) in data set [2] was 1060 nM. Also, the concentration for a half-maximal effect (EC50) stood at 2010 ± 1300 nM in data set [3] (loss of righting reflex, read-out: Tadpole LRR EC50) and 10000 nM in data set [3] (loss of swimming reflex, read-out: Tadpole LSR EC50).
